Test results: patent US10722514B2 (FLX Bio, Inc., priority 2017, dated 2020)

Biological target: T1, recombinant full-length USP7 (Homo sapiens, UniProt Q93009)
T1 construct: A 25 μl reaction volume containing recombinant full-length USP7 (62 pM)
Assay: USP7-mediated ubiquitin-rhodamine cleavage assay
Type: biochemical
Conditions: recombinant full-length USP7 62 pM; ubiquitin-rhodamine 100 nM; 30-minute pre-incubation, 1 hour reaction at room temperature; read-out: Potency (USP7 IC50)
How it was run: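 After compound and enzyme (62 pM) sat together 30 min at RT, 100 nM fluorogenic ubiquitin-rhodamine substrate was added for 1 h protected from light. Acetic acid quenched the reaction prior to the fluorescence read.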

T1 sequence (Q93009 whole entry): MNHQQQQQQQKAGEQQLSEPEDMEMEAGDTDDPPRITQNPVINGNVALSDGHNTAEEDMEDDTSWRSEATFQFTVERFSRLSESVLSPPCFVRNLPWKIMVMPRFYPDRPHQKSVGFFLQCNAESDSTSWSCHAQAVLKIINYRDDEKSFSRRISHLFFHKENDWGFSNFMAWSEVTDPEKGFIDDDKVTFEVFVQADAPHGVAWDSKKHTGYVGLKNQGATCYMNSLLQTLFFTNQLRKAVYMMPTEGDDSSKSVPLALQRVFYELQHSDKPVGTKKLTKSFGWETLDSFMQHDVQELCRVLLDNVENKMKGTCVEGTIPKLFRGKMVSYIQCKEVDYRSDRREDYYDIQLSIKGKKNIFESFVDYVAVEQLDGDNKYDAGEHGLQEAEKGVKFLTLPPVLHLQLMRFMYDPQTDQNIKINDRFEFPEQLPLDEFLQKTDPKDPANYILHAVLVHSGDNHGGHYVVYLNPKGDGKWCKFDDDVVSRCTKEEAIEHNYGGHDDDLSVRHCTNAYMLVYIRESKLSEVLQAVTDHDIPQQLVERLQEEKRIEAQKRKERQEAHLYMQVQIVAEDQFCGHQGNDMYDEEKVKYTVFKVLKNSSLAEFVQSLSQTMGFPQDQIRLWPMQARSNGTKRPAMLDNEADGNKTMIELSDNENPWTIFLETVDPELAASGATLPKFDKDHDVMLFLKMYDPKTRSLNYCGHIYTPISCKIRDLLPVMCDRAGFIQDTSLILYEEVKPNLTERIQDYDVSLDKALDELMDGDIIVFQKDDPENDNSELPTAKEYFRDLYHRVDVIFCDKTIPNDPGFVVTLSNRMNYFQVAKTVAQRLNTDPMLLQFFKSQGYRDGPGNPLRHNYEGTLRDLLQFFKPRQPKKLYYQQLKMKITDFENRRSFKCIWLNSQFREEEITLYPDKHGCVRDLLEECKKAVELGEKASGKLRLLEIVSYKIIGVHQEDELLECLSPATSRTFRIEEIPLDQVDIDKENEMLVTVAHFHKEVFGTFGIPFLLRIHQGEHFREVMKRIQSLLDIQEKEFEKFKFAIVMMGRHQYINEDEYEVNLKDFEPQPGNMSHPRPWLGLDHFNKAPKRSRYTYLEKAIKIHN

Compound | IC50
Cc1cc(Cl)cc(-c2ncnc3cc(Cn4c(=O)ccn(CC(F)(F)F)c4=O)sc23)c1OC1CNC1 [Example 587, 3-[[4-[2-(azetidin-3-yloxy)-5-chloro-3-methyl-phenyl]thieno[3,2-d]pyrimidin-6-yl]methyl]-1-(2,2,2-trifluoroethyl)pyrimidine-2,4-dione] | < 1 µM
Cc1cc(Cl)cc(-c2ccnc3cc(Cn4c(=O)ccn(C)c4=O)sc23)c1O[C@H]1CNCC[C@H]1C [Example 588, 3-[[7-[5-chloro-3-methyl-2-[[(3R,4R)-4-methyl-3-piperidyl]oxy]phenyl]thieno[3,2-b]pyridin-2-yl]methyl]-1-methyl-pyrimidine-2,4-dione; 2,2,2-trifluoroacetic acid] | < 1 µM
Cc1cc(Cl)cc(-c2ccnc3cc(Cn4c(=O)ccn(CC(F)(F)F)c4=O)sc23)c1OC1CN2CCC1C2 [Example 589, 3-[[7-[2-[[(1S,3S,4R)-1-azabicyclo[2.2.1]heptan-3-yl]oxy]-5-chloro-3-methyl-phenyl]thieno[3,2-b]pyridin-2-yl]methyl]-1-(2,2,2-trifluoroethyl)pyrimidine-2,4-dione] | < 1 µM
Cc1cc(Cl)cc(-c2ccnc3cc(Cn4c(=O)ccn(C(C)C)c4=O)sc23)c1OC1CN2CCC1C2 [Example 590, 3-[[7-[2-[[(1S,3S,4R)-1-azabicyclo[2.2.1]heptan-3-yl]oxy]-5-chloro-3-methyl-phenyl]thieno[3,2-b]pyridin-2-yl]methyl]-1-isopropyl-pyrimidine-2,4-dione] | < 1 µM
Cc1cc(Cl)cc(-c2ccnc3cc(Cn4c(=O)ccn(CC(F)(F)F)c4=O)sc23)c1O[C@@H]1CN[C@@H]1C [Example 591, 3-[[7-[5-chloro-3-methyl-2-[(2R,3R)-2-methylazetidin-3-yl]oxy-phenyl]thieno[3,2-b]pyridin-2-yl]methyl]-1-(2,2,2-trifluoroethyl)pyrimidine-2,4-dione] | < 1 µM
Cc1cc(Cl)cc(-c2ccnc3cc(Cn4c(=O)ccn(C)c4=O)sc23)c1OC1CNCCC1(C)C (stereo not shown) [Example 592, 3-[[7-[5-chloro-2-[(4,4-dimethyl-3-piperidyl)oxy]-3-methyl-phenyl]thieno[3,2-b]pyridin-2-yl]methyl]-1-methyl-pyrimidine-2,4-dione] | < 1 µM
Cc1cc(Cl)cc(-c2ccnc3cc(Cn4c(=O)ccn(C)c4=O)sc23)c1O[C@H]1CCN[C@@H](C)C1 [Example 593, 3-[[7-[5-chloro-3-methyl-2-[[(2S,4S)-2-methyl-4-piperidyl]oxy]phenyl]thieno[3,2-b]pyridin-2-yl]methyl]-1-methyl-pyrimidine-2,4-dione] | < 1 µM
Cc1cc(Cl)cc(-c2ccnc3cc(Cn4c(=O)ccn(CC(F)(F)F)c4=O)sc23)c1OC1CN2CCC1CC2 (stereo not shown) [Example 594, 3-[[7-(5-chloro-3-methyl-2-quinuclidin-3-yloxy-phenyl)thieno[3,2-b]pyridin-2-yl]methyl]-1-(2,2,2-trifluoroethyl)pyrimidine-2,4-dione; 2,2,2-trifluoroacetic acid] | < 1 µM
Cc1cc(Cl)cc(-c2ncnc3cc(Cn4c(=O)ccn(CC(F)(F)F)c4=O)sc23)c1O[C@@H]1CNC[C@@H]1C [Example 595, 3-[[4-[5-chloro-3-methyl-2-[(3S,4S)-4-methylpyrrolidin-3-yl]oxy-phenyl]thieno[3,2-d]pyrimidin-6-yl]methyl]-1-(2,2,2-trifluoroethyl)pyrimidine-2,4-dione] | < 1 µM
Cc1cc(Cl)cc(-c2ccnc3cc(Cn4c(=O)ccn(CC(F)(F)F)c4=O)sc23)c1O[C@H]1CC[C@H](N)C1 [Example 596, 3-[[7-[2-[(1S,3S)-3-aminocyclopentoxy]-5-chloro-3-methyl-phenyl]thieno[3,2-b]pyridin-2-yl]methyl]-1-(2,2,2-trifluoroethyl)pyrimidine-2,4-dione; 2,2,2-trifluoroacetic acid] | < 1 µM
Cc1cc(Cl)cc(-c2ccnc3cc(Cn4c(=O)ccn(CC(F)(F)F)c4=O)sc23)c1O[C@H]1CC[C@](C)(N)C1 [Example 597, 3-[[7-[2-[(1S,3S)-3-amino-3-methyl-cyclopentoxy]-5-chloro-3-methyl-phenyl]thieno[3,2-b]pyridin-2-yl]methyl]-1-(2,2,2-trifluoroethyl)pyrimidine-2,4-dione; 2,2,2-trifluoroacetic acid] | < 1 µM
Cc1cc(Cl)cc(-c2ccnc3cc(Cn4c(=O)ccn(CC(F)(F)F)c4=O)sc23)c1O[C@H]1CC[C@H](C)NC1 [Example 598, 3-[[7-[5-chloro-3-methyl-2-[[(3S,6S)-6-methyl-3-piperidyl]oxy]phenyl]thieno[3,2-b]pyridin-2-yl]methyl]-1-(2,2,2-trifluoroethyl)pyrimidine-2,4-dione; 2,2,2-trifluoroacetic acid] | < 1 µM
Cc1cc(Cl)cc(-c2ccnc3cc(Cn4c(=O)ccn(C)c4=O)sc23)c1O[C@@H]1CN[C@@H](C(=O)O)C1 [Example 599, (2R,4S)-4-[4-chloro-2-methyl-6-[2-[(3-methyl-2,6-dioxo-pyrimidin-1-yl)methyl]thieno[3,2-b]pyridin-7-yl]phenoxy]pyrrolidine-2-carboxylic acid] | < 1 µM
Cc1cc(Cl)cc(-c2ccnc3cc(Cn4c(=O)ccn(C)c4=O)sc23)c1O[C@H]1CN[C@H](C(=O)O)C1 [Example 600, (2S,4R)-4-[4-chloro-2-methyl-6-[2-[(3-methyl-2,6-dioxo-pyrimidin-1-yl)methyl]thieno[3,2-b]pyridin-7-yl]phenoxy]pyrrolidine-2-carboxylic acid] | 1 to 10 µM
Cc1cc(Cl)cc(-c2ccnc3cc(Cn4c(=O)ccn(C)c4=O)sc23)c1O[C@H]1CN[C@@H](C(=O)O)C1 [Example 601, (2R,4R)-4-[4-chloro-2-methyl-6-[2-[(3-methyl-2,6-dioxo-pyrimidin-1-yl)methyl]thieno[3,2-b]pyridin-7-yl]phenoxy]pyrrolidine-2-carboxylic acid] | 1 to 10 µM
Cc1cc(Cl)cc(-c2ccnc3cc(Cn4c(=O)ccn(C)c4=O)sc23)c1O[C@@H]1CCN[C@H]1C(=O)O [Example 602, (2R,3R)-3-[4-chloro-2-methyl-6-[2-[(3-methyl-2,6-dioxo-pyrimidin-1-yl)methyl]thieno[3,2-b]pyridin-7-yl]phenoxy]pyrrolidine-2-carboxylic acid] | < 1 µM
Cc1cc(Cl)cc(-c2ncnc3cc(Cn4c(=O)ccn(CC(F)(F)F)c4=O)sc23)c1O[C@@H]1CC[C@@H](N)C1 [Example 603, 3-[[4-[2-[(1R,3R)-3-aminocyclopentoxy]-5-chloro-3-methyl-phenyl]thieno[3,2-d]pyrimidin-6-yl]methyl]-1-(2,2,2-trifluoroethyl)pyrimidine-2,4-dione] | < 1 µM
CCO[C@H]1CNC[C@H]1Oc1c(C)cc(Cl)cc1-c1ccnc2cc(Cn3c(=O)ccn(CC(F)(F)F)c3=O)sc12 [Example 604, 3-[[7-[5-chloro-2-[(3R,4S)-4-ethoxypyrrolidin-3-yl]oxy-3-methyl-phenyl]thieno[3,2-b]pyridin-2-yl]methyl]-1-(2,2,2-trifluoroethyl)pyrimidine-2,4-dione] | < 1 µM
Cc1cc(Cl)cc(-c2ccnc3cc(Cn4c(=O)ccn(CC(F)(F)F)c4=O)sc23)c1O[C@@H]1CN(C2CCOC2)C[C@@H]1C (stereo partly drawn) [Example 605, 3-[[7-[5-chloro-3-methyl-2-[(3S,4S)-4-methyl-1-tetrahydrofuran-3-yl-pyrrolidin-3-yl]oxy-phenyl]thieno[3,2-b]pyridin-2-yl]methyl]-1-(2,2,2-trifluoroethyl)pyrimidine-2,4-dione] | < 1 µM
Cc1cc(Cl)cc(-c2ccnc3cc(Cn4c(=O)ccn(CC(F)(F)F)c4=O)sc23)c1O[C@@H]1CN(C2COC2)C[C@@H]1C [Example 606, 3-[[7-[5-chloro-3-methyl-2-[(3S,4S)-4-methyl-1-(oxetan-3-yl)pyrrolidin-3-yl]oxy-phenyl]thieno[3,2-b]pyridin-2-yl]methyl]-1-(2,2,2-trifluoroethyl)pyrimidine-2,4-dione] | < 1 µM
CC(=O)N1CC[C@@H](Oc2c(C)cc(Cl)cc2-c2ccnc3cc(Cn4c(=O)ccn(CC(F)(F)F)c4=O)sc23)[C@@H](C)C1 [Example 607, 3-[[7-[2-[[(3S,4R)-1-acetyl-3-methyl-4-piperidyl]oxy]-5-chloro-3-methyl-phenyl]thineo[3,2-b]pyridin-2-yl]methyl]-1-(2,2,2-trifluoroethyl)pyrimidine-2,4-dione] | < 1 µM
Cc1cc(Cl)cc(-c2ccnc3cc(Cn4c(=O)ccn(CC(F)(F)F)c4=O)sc23)c1O[C@@H]1CCN(C2CCOC2)C[C@H]1C (stereo partly drawn) [Example 608, 3-[[7-[5-chloro-3-methyl-2-[[(3R,4R)-3-methyl-1-tetrahydrofuran-3-yl-4-piperidyl]oxy]phenyl]thieno[3,2-b]pyridin-2-yl]methyl]-1-(2,2,2-trifluoroethyl)pyrimidine-2,4-dione] | < 1 µM
Cc1cc(Cl)cc(-c2ccnc3cc(Cn4c(=O)ccn(CC(F)(F)F)c4=O)sc23)c1O[C@@H]1CCN(C(=O)C(F)(F)F)C[C@@H]1C [Example 609, 3-[[7-[5-chloro-3-methyl-2-[[(3S,4R)-3-methyl-1-(2,2,2-trifluoroacetyl)-4-piperidyl]oxy]phenyl]thieno[3,2-b]pyridin-2-yl]methyl]-1-(2,2,2-trifluoroethyl)pyrimidine-2,4-dione] | < 1 µM
CC[C@H]1C[C@@H](Oc2c(C)cc(Cl)cc2-c2ccnc3cc(Cn4c(=O)ccn(C)c4=O)sc23)CCN1 [Example 610, 3-[[7-[5-chloro-2-[[(2S,4S)-2-ethyl-4-piperidyl]oxy]-3-methyl-phenyl]thieno[3,2-b]pyridin-2-yl]methyl]-1-methylpyrimidine-2,4-dione] | < 1 µM
CC[C@@H]1C[C@H](Oc2c(C)cc(Cl)cc2-c2ccnc3cc(Cn4c(=O)ccn(C)c4=O)sc23)CCN1 [Example 611, 3-[[7-[5-chloro-2-[[(2R,4R)-2-ethyl-4-piperidyl]oxy]-3-methyl-phenyl]thieno[3,2-b]pyridin-2-yl]methyl]-1-methyl-pyrimidine-2,4-dione] | < 1 µM
